Laboratory results published in PMC9737391, “Trifluoromethylcinnamanilide Michael Acceptors for Treatment of Resistant Bacterial Infections” (International Journal of Molecular Sciences, 2022).
In brackets after ≈: the same amount, converted by molar mass. Several values for one entry are separate records, joined by “and”; a condition that tells them apart may be missing. Identical values can stand only once.

Columns and labels:
[1] = Lipophilicity determination by RP-HPLC; format: physicochemical; details: RP-HPLC, logarithm of capacity factor k
Description: It is evident from the graphs in Figure 1 that the correlation coefficients of the dependences of log k/log D6.5/log D7.4 have a value of r = 0.999 (n = 32), which means that the investigated compounds behave insignificantly differently in aqueous media with different pH. Moreover, lipophilicity was calculated as log P and Clog P using two prediction programs. […] Therefore, only log P values predicted by ACD/Percepta can be used for correlations with experimental values. These matches are shown in the graphs in Figure 2, and according to the correlation coefficient r~0.940 (n = 32), it can be argued that even the predicted lipophilicity values correlate with the experimentally measured ones. However, the largest variations were observed (no difference for series 1, 2) for compounds substituted with 2-Cl, 2-CF3, 2,5-Cl, 4-F, 4-CF3, and 3,5-F, 3,5-Cl. These are mainly substituents capable of forming hydrogen and other types of non-bonding interactions both with the surrounding environment and within the molecule. Overall, series 1 (3-CF3) is less lipophilic than series 2 (4-CF3), but the differences in the experimental data are insignificant. Unsubstituted derivatives 1a/2a are the least lipophilic compounds, while derivatives 1o/2o (3,5-Cl) and 1p/2p (3,5-CF3) are the most lipophilic compounds.
Experimental determination of lipophilicity values (log k, log D6.5, and log D7.4) was performed under the same conditions and on the same device as described by Strharsky et al..

[2] = system: Staphylococcus aureus ATCC 29213; assay: MIC, microtitration broth method; format: cell-based; details: ATCC29213, S. aureus ATCC 29213
[3] = system: methicillin-resistant S. aureus SA 3202 (MRSA1); assay: MIC, microtitration broth method; format: cell-based; details: Staphylococcus aureus; MRSA SA 3202
[4] = system: methicillin-resistant S. aureus SA 630 (MRSA2); assay: MIC, microtitration broth method; format: cell-based; details: Staphylococcus aureus; MRSA SA 630
[5] = system: methicillin-resistant S. aureus 63718 (MRSA3); assay: MIC, microtitration broth method; format: cell-based; details: Staphylococcus aureus; MRSA 63718
[6] = system: M. smegmatis ATCC 700084; assay: In vitro antimycobacterial evaluation (MIC); format: cell-based, Mycobacterium smegmatis; details: Mycolicibacterium smegmatis, ATCC700084
[7] = system: Staphylococcus aureus ATCC 29213; assay: MBC, agar aliquot subculture method; format: cell-based; details: ATCC29213, S. aureus ATCC 29213
[8] = system: methicillin-resistant S. aureus SA 3202 (MRSA1); assay: MBC, agar aliquot subculture method; format: cell-based; details: Staphylococcus aureus; MRSA SA 3202
[9] = system: methicillin-resistant S. aureus SA 630 (MRSA2); assay: MBC, agar aliquot subculture method; format: cell-based; details: Staphylococcus aureus; MRSA SA 630
[10] = system: methicillin-resistant S. aureus 63718 (MRSA3); assay: MBC, agar aliquot subculture method; format: cell-based; details: Staphylococcus aureus; MRSA 63718
[11] = system: human monocytic leukemia cell line THP-1; assay: In vitro cell viability (cytotoxicity screening); format: cell-based; details: 24 h, medium with 10% FBS, ± SD, n = 6
Description: The investigated anilides can be divided into three groups. […] Higher concentrations (than 10 or 30 µM) were not possible to evaluate due to precipitation of the tested compounds in water medium. Based on all these observations, it can be concluded that the high antimicrobial activity of 3,5-CF3-substituted compounds is associated with significant cytotoxic effect against eukaryotic cells. On the other hand, the other still effective compounds, especially agents 1j and 1o, have an insignificant toxic effect, which makes them interesting for further study.
Human monocytic leukemia THP-1 cells obtained from the European Collection of Cell Cultures (ECACC, Salisbury, UK) were used for in vitro antiproliferative assays. A recently described procedure was used.

[12] = system: S. aureus ATCC 29213; assay: MTT assay, inhibition of bacterial respiration; format: cell-based, Staphylococcus aureus
Text: The MTT assay can be used to assess cell growth by measuring respiration. Respiratory activity of bacterial cells (which is finally reflected in their viability) less than 70% after exposure to the MIC values for each tested compound is considered as a positive result of this assay. This low level of cell oxidative metabolism indicates inhibition of cell growth by inhibition of respiration. The lowest multiples of MIC values that achieved more than 70% inhibition of S. aureus ATCC 29213 viability (%) are shown in Table 3.
The percent inhibition of respiration of S. aureus ATCC 29213 was determined through the MTT assay. The assay was performed as described recently. The percent viability is calculated through the comparison of a measured value and that of the uninhibited control: % viability = OD570E/OD570P × 100, where OD570E is the reading from the compound-exposed cells, while OD570P is the reading from the uninhibited cells (positive control). Cytotoxic potential is determined by a percent viability of <70% [46, 47].

[13] = system: Enterococcus faecalis ATCC 29212; assay: MIC, microtitration broth method; format: cell-based; details: ATCC29212, E. faecalis reference strain
[14] = system: vancomycin-resistant E. faecalis VRE 342B (VRE1); assay: MIC, microtitration broth method; format: cell-based, Enterococcus faecalis
[15] = system: vancomycin-resistant E. faecalis VRE 368 (VRE2); assay: MIC, microtitration broth method; format: cell-based, Enterococcus faecalis
[16] = system: vancomycin-resistant E. faecalis VRE 725B (VRE3); assay: MIC, microtitration broth method; format: cell-based, Enterococcus faecalis
[17] = system: Enterococcus faecalis ATCC 29212; assay: MBC, agar aliquot subculture method; format: cell-based; details: ATCC29212, E. faecalis reference strain
[18] = system: vancomycin-resistant E. faecalis VRE 342B (VRE1); assay: MBC, agar aliquot subculture method; format: cell-based, Enterococcus faecalis
[19] = system: vancomycin-resistant E. faecalis VRE 368 (VRE2); assay: MBC, agar aliquot subculture method; format: cell-based, Enterococcus faecalis
[20] = system: vancomycin-resistant E. faecalis VRE 725B (VRE3); assay: MBC, agar aliquot subculture method; format: cell-based, Enterococcus faecalis
[21] = system: S. aureus/MRSA; assay: Antistaphylococcal activity, summary over strains; format: cell-based, Staphylococcus aureus
[22] = system: E. faecalis/VRE; assay: Anti-enterococcal activity, summary over strains; format: cell-based, Enterococcus faecalis
[23] = system: Mycobacterium marinum CAMP 5644; assay: In vitro antimycobacterial evaluation (MIC); format: cell-based; details: Mycobacterium marinum, CAMP5644, M. marinum CAMP 5644

log k [1]	melting point	SMILES	MIC [2]	MIC [3]	MIC [4]	MIC [5]	MIC [6]	MBC [7]	MBC [8]	MBC [9]	MBC [10]	IC50 [11]	Conc.: lowest multiple of MIC with at least 70% inhibition of respiratory activity [12]	Conc.: the same concentration as multiple of MBC [12]	also measured
0.9319	192 to 194 °C	O=C(/C=C/c1ccc(C(F)(F)F)cc1)Nc1ccc(C(F)(F)F)cc1 [2j, (2E)-N,3-bis[4-(Trifluoromethyl)phenyl]prop-2-enamide]													
0.6011	141 to 143 °C	O=C(/C=C/c1ccc(C(F)(F)F)cc1)Nc1ccc(F)cc1F [2k, (2E)-N-(2,4-Difluorophenyl)-3-[4-(trifluoromethyl)phenyl]prop-2-enamide]													
0.8253	188 to 190 °C	O=C(/C=C/c1ccc(C(F)(F)F)cc1)Nc1cc(F)cc(F)c1 [2l, (2E)-N-(3,5-Difluorophenyl)-3-[4-(trifluoromethyl)phenyl]prop-2-enamide]													
0.9735	188 to 190 °C	O=C(/C=C/c1ccc(C(F)(F)F)cc1)Nc1ccc(Cl)cc1Cl [2m, (2E)-N-(2,4-Dichlorophenyl)-3-[4-(trifluoromethyl)phenyl]prop-2-enamide]													
0.9583	180 to 182 °C	O=C(/C=C/c1ccc(C(F)(F)F)cc1)Nc1cc(Cl)ccc1Cl [2n, (2E)-N-(2,5-Dichlorophenyl)-3-[4-(trifluoromethyl)phenyl]prop-2-enamide]													
1.2024	177 to 179 °C	O=C(/C=C/c1ccc(C(F)(F)F)cc1)Nc1cc(Cl)cc(Cl)c1 [2o, (2E)-N-(3,5-Dichlorophenyl)-3-[4-(trifluoromethyl)phenyl]prop-2-enamide]													
		CC1(C)S[C@@H]2[C@H](NC(=O)[C@H](N)c3ccccc3)C(=O)N2[C@H]1C(=O)O [AMP, ampicillin, reference compound]	5.72 µM (≈ 2 µg/mL)	45.8 µM (≈ 16 µg/mL)	45.8 µM (≈ 16 µg/mL)	45.8 µM (≈ 16 µg/mL)		> 5.72 µM	> 45.8 µM	> 45.8 µM	> 45.8 µM		8× MIC (>8× MBC)	8× MIC (>8× MBC)	MIC [13]: 2.81 µM (≈ 0.982 µg/mL); MIC [14]: 11.5 µM (≈ 4.02 µg/mL); MIC [15]: 11.5 µM (≈ 4.02 µg/mL); MIC [16]: 11.5 µM (≈ 4.02 µg/mL); MBC [17]: 2.81 µM (≈ 0.982 µg/mL); MBC [18]: 11.5 µM (≈ 4.02 µg/mL); MBC [19]: 11.5 µM (≈ 4.02 µg/mL); MBC [20]: 11.5 µM (≈ 4.02 µg/mL)
		NNC(=O)c1ccncc1 [INH, isoniazid, reference compound]					117 µM (≈ 16 µg/mL)								MIC [23]: 36.6 µM (≈ 5.02 µg/mL)

SMILES	log k [1]	melting point	MIC [2]	MIC [3]	MIC [4]	MIC [5]	MIC [6]	MBC [7]	MBC [8]	MBC [9]	MBC [10]	IC50 [11]	Conc.: lowest multiple of MIC with at least 70% inhibition of respiratory activity [12]	Conc.: the same concentration as multiple of MBC [12]	also measured
O=C(/C=C/c1cccc(C(F)(F)F)c1)Nc1cccc(F)c1 [1c, (2E)-N-(3-Fluorophenyl)-3-[3-(trifluoromethyl)phenyl]prop-2-enamide]	0.6333	113 to 115 °C	12.9 µM (≈ 3.99 µg/mL)	25.9 µM (≈ 8.01 µg/mL)	12.9 µM (≈ 3.99 µg/mL)	12.9 µM (≈ 3.99 µg/mL)	51.7 µM (≈ 16 µg/mL)	25.9 µM (≈ 8.01 µg/mL)	25.9 µM (≈ 8.01 µg/mL)	12.9 µM (≈ 3.99 µg/mL)	12.9 µM (≈ 3.99 µg/mL)	> 30 µM	2 × MIC	1 × MBC	
O=C(/C=C/c1cccc(C(F)(F)F)c1)Nc1cccc(Cl)c1 [1f, (2E)-N-(3-Chlorophenyl)-3-[3-(trifluoromethyl)phenyl]prop-2-enamide]	0.8016	126 to 128 °C	12.3 µM (≈ 4.01 µg/mL)	6.14 µM (≈ 2 µg/mL)	6.14 µM (≈ 2 µg/mL)	6.14 µM (≈ 2 µg/mL)	24.6 µM (≈ 8.01 µg/mL)	12.3 µM (≈ 4.01 µg/mL)	6.14 µM (≈ 2 µg/mL)	6.14 µM (≈ 2 µg/mL)	12.3 µM (≈ 4.01 µg/mL)	> 10 µM	1× MIC (1× MBC)	1× MIC (1× MBC)	
O=C(/C=C/c1cccc(C(F)(F)F)c1)Nc1ccc(Cl)cc1 [1g, (2E)-N-(4-Chlorophenyl)-3-[3-(trifluoromethyl)phenyl]prop-2-enamide]	0.7982	162 to 164 °C	24.6 µM (≈ 8.01 µg/mL)	12.3 µM (≈ 4.01 µg/mL)	6.14 µM (≈ 2 µg/mL)	12.3 µM (≈ 4.01 µg/mL)	24.6 µM (≈ 8.01 µg/mL)	49.1 µM (≈ 16 µg/mL)	24.6 µM (≈ 8.01 µg/mL)	6.14 µM (≈ 2 µg/mL)	24.6 µM (≈ 8.01 µg/mL)	> 10 µM	4 × MIC	2 × MBC	
O=C(/C=C/c1cccc(C(F)(F)F)c1)Nc1cccc(C(F)(F)F)c1 [1i, (2E)-N,3-bis[3-(Trifluoromethyl)phenyl]prop-2-enamide]	0.8807		11.1 µM (≈ 3.99 µg/mL)	11.1 µM (≈ 3.99 µg/mL)	2.78 µM (≈ 0.999 µg/mL)	2.78 µM (≈ 0.999 µg/mL)	11.1 µM (≈ 3.99 µg/mL)	22.3 µM (≈ 8.01 µg/mL)	11.1 µM (≈ 3.99 µg/mL)	2.78 µM (≈ 0.999 µg/mL)	22.3 µM (≈ 8.01 µg/mL)	> 10 µM	1 × MIC	0.5 × MBC	
O=C(/C=C/c1cccc(C(F)(F)F)c1)Nc1cc(Cl)cc(Cl)c1 [1o, (2E)-N-(3,5-Dichlorophenyl)-3-[3-(trifluoromethyl)phenyl]prop-2-enamide]	1.2028	124 to 126 °C	0.694 µM (≈ 0.25 µg/mL)	1.39 µM (≈ 0.501 µg/mL)	0.694 µM (≈ 0.25 µg/mL)	0.694 µM (≈ 0.25 µg/mL)	11.1 µM (≈ 4 µg/mL)	0.694 µM (≈ 0.25 µg/mL)	2.78 µM (≈ 1 µg/mL)	0.694 µM (≈ 0.25 µg/mL)	1.39 µM (≈ 0.501 µg/mL)	> 30 µM	0.25× MIC (0.25× MBC)	0.25× MIC (0.25× MBC)	MIC [13]: 11.1 µM (≈ 4 µg/mL); MIC [14]: 22.2 µM (≈ 8 µg/mL); MIC [15]: 22.2 µM (≈ 8 µg/mL); MIC [16]: 22.2 µM (≈ 8 µg/mL); MBC [17]: 22.2 µM (≈ 8 µg/mL); MBC [18]: 22.2 µM (≈ 8 µg/mL); MBC [19]: 22.2 µM (≈ 8 µg/mL); MBC [20]: 22.2 µM (≈ 8 µg/mL); MIC ([21]; Staphylococcus aureus, MRSA, average over the named compounds and strains, read-out: average MIC against S. aureus/MRSA): ~1.4 µM (≈ 0.504 µg/mL); antistaphylococcal MICs/MBCs ([21]; range over S. aureus and MRSA isolates and over the named compounds): 0.15 to 5.57 µM and 0.146 to 5.57 µM; MIC ([22]; Enterococcus faecalis, VRE, average over the named compounds and strains, read-out: average MIC against E. faecalis/VRE): ~15 µM (≈ 5.4 µg/mL); anti-enterococcal MICs/MBCs ([22]; range over E. faecalis and VRE isolates and over the named compounds): 2.34 to 44.5 µM
